# How the values were obtained:
# Assay type in all cases: ADME, organism-based
# Settings in all cases: in vivo
# [1] = Bioavailability in Sprague-Dawley rat by HPLC-MS/MS analysis
# Plasma [2] = test: Plasma concentration in monoiodoacetate-induced osteoarthritis rat model at 3 mg/kg, po
# Plasma [3] = test: Plasma concentration in monoiodoacetate-induced osteoarthritis rat model at 30 mg/kg, po
# Plasma [4] = test: Plasma concentration in monoiodoacetate-induced osteoarthritis rat model at 10 mg/kg, po
SMILES,bioavailability [1],Cp (Plasma [2]),Cp (Plasma [3]),Cp (Plasma [4])
CC(Oc1nn(-c2ccccc2F)c2ccc(F)cc12)C(=O)N1CCOCC1 (configuration not stated),27%,–,–,–
Fc1ccc2c(c1)c(OCCn1ccnc1)nn2-c1ccccc1F,28%,–,–,–
O=C(COc1nn(-c2ccccc2F)c2ccc(F)cc12)N1CCOCC1,22%,–,–,–
O=C1NCCN1CCOc1nn(-c2ccc(F)cc2)c2ccc(F)cc12,54%,–,–,–
O=C1CN(c2cccc3c2cnn3-c2ccccc2F)CCN1CC(=O)N1CC[C@H](F)C1,84%,–,–,–
O=C1NCCN1CCOc1nn(-c2ccc(F)cc2F)c2ccc(F)cc12,71%,–,–,–

# More lines, now with the values ahead:
bioavailability [1],Cp (Plasma [2]),Cp (Plasma [3]),Cp (Plasma [4]),SMILES
94%,–,–,–,O=C(CN1CCN(c2cccc3c2cnn3-c2ccccc2F)C1=O)N1CCCC1
83%,2700 ng/mL,10500 ng/mL,6800 ng/mL,O=C(CN1CCN(c2cccc3c2cnn3-c2ccccc2F)C1=O)N1CC[C@H](F)C1
35%,–,–,–,O=c1[nH]ccn1CCOc1nn(-c2ccccc2F)c2ccc(F)cc12
82%,–,–,–,CC(C)CC(=O)CN1CCN(c2cccc3c2cnn3-c2ccccc2F)C1=O
17%,50 ng/mL,1050 ng/mL,380 ng/mL,O=C1NCCN1CCOc1nn(-c2ccccc2F)c2ccc(F)cc12

# — ChEMBL document CHEMBL3797111, “Substituted Indazoles as Nav1.7 Blockers for the Treatment of Pain” (J Med Chem, 2016)
